According to US20190255023A1, “COMBINATION THERAPY COMPRISING A THIAZOLE AND A CORTICOSTEROID TO TREAT SKIN CONDITIONS” (priority 2016, published 2019):

System: immortalized keratinocyte cell line HaCaT
Test: Resazurin assay, HaCaT cell viability / proliferation
Type: cell-based, human
Settings: for suboptimal dose of reduced viability: single agent dose response, HaCaT, 24 hours (FIG. 1)
Description: The spontaneously immortalized, nontumorigenic skin keratinocyte cell line HaCaT was maintained in DMEM supplemented with 5% (v/v) FBS, 0.3 mg/ml glutamine and 0.1 mg/ml gentamicin at 37° C. with 5% CO2 in a humidified atmosphere. Subculture using trypsin-EDTA was performed every 3-4 days with split ratio of 1:3-1:4 to ensure actively proliferating cells.
Cells were seeded in 96 well plates in fully supplemented medium at a density of 3000 cells per well. […] Next day, the cells were treated with cPLA2α inhibitor Compound B, Compound A, vitamin D analogue Calcipotriol and corticosteroid hormone receptor agonist Betamethasone dipropionate for 24 hours. Resazurin was added next day according to the manufacturer's instruction (RnD Systems, UK) and left to incubate for […] in incubator at 37° C. with 5% CO2 in a humidified atmosphere before fluorescence was read at 544 nm excitation and 590 nm emission wavelength. The cells were observed under the microscope to evaluate possible morphology changes and signs of stress before addition of resazurin. The experiments were performed in series of 8 wells per treatment and repeated 3 times.

C[C@H]1C[C@H]2[C@@H]3CCC4=CC(=O)C=C[C@]4(C)[C@@]3(F)[C@@H](O)C[C@]2(C)[C@@]1(O)C(=O)CO [Betamethasone]
concentration up to which Hacat keratinocytes show resistance (single agent dose response (FIG. 1c), little effect seen attributed to solvent DMSO): up to 200 μM
suboptimal dose of reduced viability: 50 µM

CCCCCCCOc1ccc(OCC(=O)c2nc(C(=O)OC)cs2)cc1 [Compound A1]
suboptimal dose of reduced viability: 10 µM
